Reference: patent publication US6355616B1, “Derivative compounds derived from or based on bactericidal/permeability-increasing protein” (priority 1999, dated 2002)
Non-standard residues stand in square brackets, D forms with d. Residues, ends and D or L forms follow the SMILES beside them. Aoc = NCCCCCCCC(=O)O

What was measured:
[1] = test system: Candida albicans designated CA-1, Strain SLU-1; type: cell-based; conditions: designated CA-1, Strain SLU-1, 24 h
Protocol: In each broth microdilution assay screening procedure, a colony of Candida albicans designated CA-1, Strain SLU-1 that was received from the laboratories of G. Matuschak and A. Lechner, St. Louis University Hospital, St. Louis, Mo., where the strain was maintained, was inoculated into a tube containing 5 mL Sabouraud Dextrose broth (2% dextrose, 1% neopeptone) and incubated at 37° C. with shaking. The overnight culture was diluted 1:50 into 5 ml of fresh broth and incubated for 3 hours at 37° C. to exponential phase growth. Organisms were pelleted by centrifugation in a Beckman J-6M centrifuge for 5 minutes at 3000 rpm (1500×g) and the pellets were resuspended in 5 mL phosphate buffered saline (PBS) and the optical density (OD) at 570 nm was determined. On the basis of the determination that one OD unit equals 3×10^7 colony forming units/mL (CFU/mL), yeast cells were diluted to 5×10^3 CFU/mL in Sabouraud Dextrose broth (SBD).
Derivatized peptide sequences based on Domain III of BPI to be screened which were originally constituted in Dulbecco's-PBS, were two-fold serially diluted in SDB starting from a concentration of 128 μg/mL. Equal volumes (100 μL) of yeast suspension as prepared above and derivatized peptide solution were added to wells of a 96-well sterile, flat bottom, non-pyrogenic tissue culture microtiter plate (Costar, Cambridge, Mass.) to reach a final volume of 200 μL/well. The plate was incubated on a shaker at 37° C. for 24 hours. All assays were performed in triplicate. Following the incubation period, plates were read in an ELISA plate reader at 595 nm wavelength to determine the minimum inhibitory concentration (MIC), i.e., the lowest concentration required to reduce the optical density at 595 nm to below 0.1 OD.

Candida albicans SLU-1 = assay: Radial diffusion assay; type: cell-based; conditions: 30 mm^2 area of growth inhibition, calculated by PROBIT analysis
Protocol: In the radial diffusion assay procedures, the CA-1 cultures and derivatized peptide solutions were prepared as in the broth microdilution assay procedure described above, i.e., CA-1 was grown to exponential phase in SDB. Ten (10) mL of molten underlayer agarose comprising 3% Sabouraud Dextrose broth, 1% agarose (Pharmacia, Piscataway, N.J.), 0.02% Tween 20, and 10 mM sodium phosphate at pH 7.4, was added to polystyrene tubes and maintained in a 56° C. water bath until the addition of yeast. Tubes were cooled to approximately 45° C., yeast were added to give a final concentration of 1×10^6 CFU/mL, and the tubes were mixed again by inverting. The contents were poured into leveled, square petri dishes and distributed evenly. […] A series of wells were punched into the hardened agarose using a sterile 3 mm punch attached to a vacuum apparatus to achieve a uniform, 3 mm diameter well.
Derivatized peptide sequences to be assayed were 2-fold serially diluted in 10 mM Dulbecco's PBS (D-PBS) starting from a concentration of approximately […]. Five μL of each dilution were added to each well and the plates were incubated at 37° C. for 3 hours to allow for complete diffusion of the test compounds. An overlayer of 10 mL of molten agarose comprising 6% Sabouraud Dextrose broth, 1% agarose, and 10 mM sodium phosphate, pH 7.4, (at approximately 45° C.) was then added and plates were incubated overnight at 37° C. Following this overnight incubation, a dilute Coomassie solution was poured into the plates and allowed to stain for 24 hours to enhance visualization of the zones.
Clear zones of growth inhibition around each well were measured with calipers. The actual area of growth inhibition (mm^2) was calculated by subtracting the area of the well. Table II below sets out the results of the radial diffusion assays for a series of tested peptide-based constructs in terms of the number of picomoles (pmol) of compound required to establish a 30 mm^2 area of growth inhibition of Candida albicans SLU-1 calculated by PROBIT analysis (e.g., calculated from regression of the linear portion of log-concentration dose-response curve, log pmol/well vs. net area of inhibition).

Structure (SMILES)	Broth Microdilution (MIC values in μg/mL C. albicans SLU1) [1] [µg/mL]	Radial Diffusion (pmol to achieve 30 mm^2 zone C. albicans SLU1) (Candida albicans SLU-1)
CC[C@@H](C)[C@@H](NC(=O)[C@@H](CC(C)C)NC(=O)[C@@H](Cc1c[nH]c2ccccc12)NC(=O)[C@@H](CCCCN)NC(=O)CCCCCCCN)C(=O)N[C@H](CCC(N)=O)C(=O)N[C@H](CC(C)C)C(=O)N[C@H](Cc1ccccc1)C(=O)N[C@H](Cc1c[nH]cn1)C(=O)N[C@H](CCCCN)C(=O)N[C@H](CCCCN)C(N)=O [XMP.416] (H-[Aoc][dK][dW][dL][dI][dQ][dL][dF][dH][dK][dK]-NH2)	1	410 pmol
CC[C@@H](C)[C@@H](NC(=O)[C@@H](CC(C)C)NC(=O)[C@@H](Cc1c[nH]c2ccccc12)NC(=O)[C@@H](CCCCN)NC(=O)c1cc2ccccc2o1)C(=O)N[C@H](CCC(N)=O)C(=O)N[C@H](CC(C)C)C(=O)N[C@H](Cc1ccccc1)C(=O)N[C@H](Cc1c[nH]cn1)C(=O)N[C@H](CCCCN)C(=O)N[C@H](CCCCN)C(N)=O [XMP.536]	4	>3,371 pmol
CC[C@@H](C)[C@@H](NC(=O)[C@@H](CC(C)C)NC(=O)[C@@H](Cc1c[nH]c2ccccc12)NC(=O)[C@@H](CCCCN)NC(=O)c1ccc2ccccc2n1)C(=O)N[C@H](CCC(N)=O)C(=O)N[C@H](CC(C)C)C(=O)N[C@H](Cc1ccccc1)C(=O)N[C@H](Cc1c[nH]cn1)C(=O)N[C@H](CCCCN)C(=O)N[C@H](CCCCN)C(N)=O [XMP.596]	2	3,140 pmol

Second part, led by results:

Broth Microdilution (MIC values in μg/mL C. albicans SLU1) [1] [µg/mL]	Structure (SMILES)	Radial Diffusion (pmol to achieve 30 mm^2 zone C. albicans SLU1) (Candida albicans SLU-1)
8	CC[C@@H](C)[C@@H](NC(=O)[C@@H](CC(C)C)NC(=O)[C@@H](Cc1c[nH]c2ccccc12)NC(=O)[C@@H](CCCCN)NC(C)=O)C(=O)N[C@H](CCC(N)=O)C(=O)N[C@H](CC(C)C)C(=O)N[C@H](Cc1ccccc1)C(=O)N[C@H](Cc1c[nH]cn1)C(=O)N[C@H](CCCCN)C(=O)N[C@H](CCCCNC(=O)CCCC[C@@H]1SC[C@@H]2NC(=O)N[C@@H]21)C(N)=O [XMP.518]	484 pmol
16	CC[C@@H](C)[C@@H](NC(=O)[C@@H](CC(C)C)NC(=O)[C@@H](Cc1c[nH]c2ccccc12)NC(=O)[C@@H](CCCCN)NC(C)=O)C(=O)N[C@H](CCC(N)=O)C(=O)N[C@H](CC(C)C)C(=O)N[C@H](Cc1ccccc1)C(=O)N[C@H](Cc1c[nH]cn1)C(=O)N[C@H](CCCCNC(=O)CCCC[C@@H]1SC[C@@H]2NC(=O)N[C@@H]21)C(=O)N[C@H](CCCCN)C(N)=O [XMP.521]	959 pmol
8	CC[C@@H](C)[C@@H](NC(=O)[C@@H](CC(C)C)NC(=O)[C@@H](Cc1c[nH]c2ccccc12)NC(=O)[C@@H](CCCCN)NC(=O)c1cc2ccccc2[nH]1)C(=O)N[C@H](CCC(N)=O)C(=O)N[C@H](CC(C)C)C(=O)N[C@H](Cc1ccccc1)C(=O)N[C@H](Cc1c[nH]cn1)C(=O)N[C@H](CCCCN)C(=O)N[C@H](CCCCN)C(N)=O [XMP.545]	1,635 pmol
>64	CC[C@@H](C)[C@@H](NC(=O)[C@@H](CC(C)C)NC(=O)[C@@H](Cc1c[nH]c2ccccc12)NC(=O)[C@@H](CCCCN)NC(=O)c1nccc2ccccc12)C(=O)N[C@H](CCC(N)=O)C(=O)N[C@H](CC(C)C)C(=O)N[C@H](Cc1ccccc1)C(=O)N[C@H](Cc1c[nH]cn1)C(=O)N[C@H](CCCCN)C(=O)N[C@H](CCCCN)C(N)=O [XMP.546]	>3,371 pmol
4	CC[C@@H](C)[C@@H](NC(=O)[C@@H](CC(C)C)NC(=O)[C@@H](Cc1c[nH]c2ccccc12)NC(=O)[C@@H](CCCCN)NC(=O)c1cccc(Cl)c1[N+](=O)[O-])C(=O)N[C@H](CCC(N)=O)C(=O)N[C@H](CC(C)C)C(=O)N[C@H](Cc1ccccc1)C(=O)N[C@H](Cc1c[nH]cn1)C(=O)N[C@H](CCCCN)C(=O)N[C@H](CCCCN)C(N)=O [XMP.618]	2,146 pmol
